In brackets after ≈: the same amount, converted by molar mass.
What was measured:
HeLa-S3 cells = assay: Cytotoxicity (MTT, without virus), HeLa-S3; details: HeLa-S3, no virus, incubated for 4 days
[1] = tested on: coxsackievirus type A7 (CA7); assay: In vitro anti-picornavirus activity (MTT), CA7; format: cell-based; details: HeLa-S3 cells, MTT method, 37° C.
[2] = tested on: coxsackievirus type B4 (CB4,JVB); assay: In vitro anti-picornavirus activity (MTT), CB4; format: cell-based; details: HeLa cells, MTT method, 37° C.
HRV 2 (HGP) = assay: Anti-rhinovirus activity (MTT), HRV2; format: cell-based, human rhinovirus; details: HeLa (Ohio strain) cells, MTT method, 33° C.
HeLa cells = assay: Cytotoxicity (MTT, without virus), HeLa; details: HeLa, no virus, incubated for 4 days
[3] = tested on: Poliovirus type 1 (Polio 1, Sabin); assay: microbe, parasite or virus in culture; format: cell-based
HRV 89 (41617-Gallo) = assay: Anti-rhinovirus activity (MTT), HRV89; format: cell-based, human rhinovirus; details: HeLa (Ohio strain) cells, MTT method, 33° C.
[4] = tested on: human rhinovirus type 1B (HRV 1B, B632); assay: Anti-rhinovirus activity (MTT), HRV1B; format: cell-based; details: HeLa (Ohio strain) cells, MTT method, 33° C.
[5] = tested on: echovirus type 11 (Echo 11, Gregory); assay: In vitro anti-picornavirus activity (MTT), Echo 11; format: cell-based; details: HeLa-S3 cells, MTT method, 37° C.
HeLa (Ohio strain)cells = assay: Cytotoxicity (MTT, without virus), HeLa(Ohio); details: HeLa(Ohio), no virus, incubated for 4 days

| Compound | Cytotoxicity CC50 HeLa-S3 (HeLa-S3 cells) [mg/L] | IC50 CA7 [1] [mg/L] | IC50 CB4 [2] [mg/L] | IC50 HRV2 (HRV 2 (HGP)) [mg/L] | Cytotoxicity CC50 HeLa (HeLa cells) [mg/L] | IC50 Polio 1 [3] [mg/L] | IC50 HRV89 (HRV 89 (41617-Gallo)) [mg/L] | IC50 HRV1B [4] [mg/L] | IC50 Echo 11 [5] [mg/L] | Cytotoxicity CC50 HeLa(Ohio) (HeLa (Ohio strain)cells) [mg/L] |
| --- | --- | --- | --- | --- | --- | --- | --- | --- | --- | --- |
| CCn1c(-c2ccccc2)c(C)c(=O)c2c(Cl)c(OCC(C)C)ccc21 [Compound A179] | >4 | 2.4 (≈ 6.49 µM) | 1.2 (≈ 3.24 µM) | 0.87 (≈ 2.35 µM) | >4 | 0.29 (≈ 0.784 µM) | 0.37 (≈ 1 µM) | 0.86 (≈ 2.33 µM) | 0.20 (≈ 0.541 µM) | >4 |
| Cc1cc2c(c(C)c1OCC(C)C)c(=O)cc(-c1ccccc1)n2C [Compound A285] | >4 | 3.1 (≈ 9.24 µM) | 1.9 (≈ 5.66 µM) | 0.18 (≈ 0.537 µM) | >4 | 0.69 (≈ 2.06 µM) | 0.46 (≈ 1.37 µM) | 0.68 (≈ 2.03 µM) | 0.2 (≈ 0.596 µM) | >4 |
| CCn1c(-c2ccsc2)cc(=O)c2cc(C(C)C)ccc21 [Compound A313] | >20 | 3.8 (≈ 12.8 µM) | 3.0 (≈ 10.1 µM) | 0.33 (≈ 1.11 µM) | 18 | 0.94 (≈ 3.16 µM) | 0.96 (≈ 3.23 µM) | 0.90 (≈ 3.03 µM) | 0.35 (≈ 1.18 µM) | 15 |
| Cc1c(-c2ccccc2)n(C)c2cc(C(C)C)c(OC(C)C)cc2c1=O [Compound A258] | >5 | 4.9 (≈ 14 µM) | >1.6 | 0.45 (≈ 1.29 µM) | 4.5 | 0.62 (≈ 1.77 µM) | 0.66 (≈ 1.89 µM) | 0.62 (≈ 1.77 µM) | 0.23 (≈ 0.658 µM) | 4.9 |
| COc1cc2c(=O)c(C)c(-c3ccccc3)n(C)c2cc1C(C)C [Compound A226] | >10 | 9.7 (≈ 30.2 µM) | >3.3 | 0.73 (≈ 2.27 µM) | >10 | 0.93 (≈ 2.89 µM) | <0.033 | 1.6 (≈ 4.98 µM) | 0.33 (≈ 1.03 µM) | >10 |
| Cc1c(-c2ccccc2)n(C)c2ccc(OCC(C)C)c(N)c2c1=O.Cl [Compound A194] | >2.5 | 1.7 | 1.3 | 0.49 | >2.5 | 0.58 | 0.18 | 0.05 | 0.45 | >2.5 |
| CCn1c(-c2ccccc2)c(C)c(=O)c2c(C)c(OCC(C)C)ccc21 [Compound A188] | >5 | 1.2 (≈ 3.43 µM) | 1.1 (≈ 3.15 µM) | 0.33 (≈ 0.944 µM) | >5 | 0.31 (≈ 0.887 µM) | 0.25 (≈ 0.715 µM) | 0.81 (≈ 2.32 µM) | 0.27 (≈ 0.773 µM) | >5 |
| CCn1c(-c2ccc(Br)s2)cc(=O)c2cc(C(C)C)ccc21 [Compound A317] | >5 | 2.6 (≈ 6.91 µM) | 1.1 (≈ 2.92 µM) | 0.43 (≈ 1.14 µM) | >5 | 0.81 (≈ 2.15 µM) | 0.40 (≈ 1.06 µM) | 0.82 (≈ 2.18 µM) | 0.35 (≈ 0.93 µM) | >5 |
| CCOc1ccc(-c2cc(=O)c3cc(C(C)C)ccc3n2C)cc1C [Compound A99] | 5.8 | 1.8 (≈ 5.37 µM) | 1.1 (≈ 3.28 µM) | 0.50 (≈ 1.49 µM) | 5.4 | 0.55 (≈ 1.64 µM) | 0.14 (≈ 0.417 µM) | 0.63 (≈ 1.88 µM) | 0.20 (≈ 0.596 µM) | 5.7 |
| Cc1cc2c(c(C)c1OCC(C)C)c(=O)c(C)c(-c1ccccc1)n2C [Compound A286] | >5 | >5 | 1.4 (≈ 4.01 µM) | 0.23 (≈ 0.658 µM) | >5 | 1.3 (≈ 3.72 µM) | 0.61 (≈ 1.75 µM) | 0.87 (≈ 2.49 µM) | 0.57 (≈ 1.63 µM) | >5 |
| CC(C)c1ccc2c(c1)c(=O)cc(-c1ccc(Cl)c(Cl)c1)n2C [Compound A61] | >4 | >4 | >4 | 0.65 (≈ 1.88 µM) | >4 | 0.73 (≈ 2.11 µM) | 0.38 (≈ 1.1 µM) | 0.64 (≈ 1.85 µM) | 0.40 (≈ 1.16 µM) | >4 |
| CCn1c(-c2ccccc2)c(C)c(=O)c2cc(NCC(C)C)ccc21.O [Compound A159] | >5 | 2.7 | 3.0 | 0.48 | >5 | 0.51 | 0.73 | 0.78 | 0.26 | >5 |
| COc1ccc(-c2c(C)c(=O)c3cc(OCC(C)C)c(C)cc3n2C)cc1C [Compound A237] | >4 | >4 | 2.9 (≈ 7.64 µM) | 0.29 (≈ 0.764 µM) | >4 | 1.1 (≈ 2.9 µM) | 0.46 (≈ 1.21 µM) | 2.0 (≈ 5.27 µM) | 0.40 (≈ 1.05 µM) | >4 |
| CCn1c(-c2ccccc2)c(C)c(=O)c2cc(N3CCOCC3)ccc21 [Compound A169] | >50 | >50 | 18 (≈ 51.7 µM) | 1.0 (≈ 2.87 µM) | >50 | 4.3 (≈ 12.3 µM) | 5.4 (≈ 15.5 µM) | 8.2 (≈ 23.5 µM) | 1.1 (≈ 3.16 µM) | >50 |
| COc1ccc(-c2c(C)c(=O)c3cc(C(C)C)ccc3n2C)cc1 [Compound A81] | 7.6 | 0.78 (≈ 2.43 µM) | 2.2 (≈ 6.84 µM) | 0.86 (≈ 2.68 µM) | 6.5 | 0.78 (≈ 2.43 µM) | 0.55 (≈ 1.71 µM) | 1.7 (≈ 5.29 µM) | 0.52 (≈ 1.62 µM) | 5.8 |
| COc1ccc(-n2c(-c3ccccc3)c(C)c(=O)c3cc(C(C)C)ccc32)cc1 [Compound A326] | >2.5 | >2.5 | >2.5 | 0.48 (≈ 1.25 µM) | >2.5 | >2.5 | 0.067 (≈ 0.175 µM) | >2.5 | >2.5 | >2.5 |
